We go through one molecule from patent US11542249B2, “BTK inhibitor compounds” (Eli Lilly and Company, priority 2017, dated 2023).

Molecules are shown by their SMILES.

For one data set, the target named is human BTK (Homo sapiens (Human), UniProt Q06187). Briefly: BTK LANTHASCREEN Eu Kinase Binding Assay. The conditions noted are these: IC50 value ± standard deviation; full-length His-labeled BTK, kinase tracer 236; read-out: hBTK Rel IC50. For orientation: Time-resolved FRET reads energy transfer from a long-lived donor to a nearby acceptor.
Chain of human BTK (Q06187 whole entry, the tested form may be a part): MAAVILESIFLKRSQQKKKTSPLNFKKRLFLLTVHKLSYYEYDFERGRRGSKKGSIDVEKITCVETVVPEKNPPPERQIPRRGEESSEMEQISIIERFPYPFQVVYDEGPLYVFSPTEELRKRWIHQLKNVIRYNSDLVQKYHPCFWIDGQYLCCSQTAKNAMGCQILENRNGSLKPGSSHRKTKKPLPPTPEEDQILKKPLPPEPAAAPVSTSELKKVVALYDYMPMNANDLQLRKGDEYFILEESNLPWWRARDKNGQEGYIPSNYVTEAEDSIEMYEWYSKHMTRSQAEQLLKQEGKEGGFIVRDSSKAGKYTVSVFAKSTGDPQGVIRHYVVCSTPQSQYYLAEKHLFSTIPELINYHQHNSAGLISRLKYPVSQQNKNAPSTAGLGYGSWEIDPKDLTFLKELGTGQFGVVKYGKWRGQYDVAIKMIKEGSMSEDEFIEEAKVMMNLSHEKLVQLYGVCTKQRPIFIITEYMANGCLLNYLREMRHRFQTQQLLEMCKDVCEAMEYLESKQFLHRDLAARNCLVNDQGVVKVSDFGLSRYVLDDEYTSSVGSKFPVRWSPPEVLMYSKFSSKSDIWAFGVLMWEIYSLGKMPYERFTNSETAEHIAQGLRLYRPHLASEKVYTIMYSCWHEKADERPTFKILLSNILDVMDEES
The target in a further data set is human EGFR (Homo sapiens (Human), UniProt P00533). Briefly: EGFR LANTHASCREEN Eu Kinase Binding Assay. The conditions noted are these: IC50 value ± standard deviation; truncated GST-labeled EGFR, kinase tracer 199; read-out: hEGFR Rel IC50.
Chain of human EGFR (P00533 668-1210): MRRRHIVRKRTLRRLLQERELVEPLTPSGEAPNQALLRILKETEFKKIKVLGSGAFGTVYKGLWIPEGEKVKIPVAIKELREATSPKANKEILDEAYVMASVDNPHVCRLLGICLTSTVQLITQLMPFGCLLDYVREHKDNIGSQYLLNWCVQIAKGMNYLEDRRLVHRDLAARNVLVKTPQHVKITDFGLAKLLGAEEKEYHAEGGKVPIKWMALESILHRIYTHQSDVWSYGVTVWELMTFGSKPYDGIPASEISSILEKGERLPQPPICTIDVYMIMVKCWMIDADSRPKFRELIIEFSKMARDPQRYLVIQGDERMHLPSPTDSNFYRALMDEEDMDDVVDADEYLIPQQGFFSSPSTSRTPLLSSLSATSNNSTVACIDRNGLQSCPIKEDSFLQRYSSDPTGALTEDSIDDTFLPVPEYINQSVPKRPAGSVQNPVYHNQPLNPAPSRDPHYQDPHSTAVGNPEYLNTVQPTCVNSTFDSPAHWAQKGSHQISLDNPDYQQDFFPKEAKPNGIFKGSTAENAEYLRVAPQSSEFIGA
In data set [1] the test system is activated B cells in human whole blood (CD69). Briefly: Human Whole Blood CD69 in vitro assay (B cell activation, flow cytometry). As to conditions: IC50 value ± standard deviation, anti-human-IgD-Dextran stimulation, read-out: HWB CD69 Rel IC50. The data set is classed as cell-based.
The next data set in a line: Rat Oral Bioavailability. The conditions noted are these: Sprague-Dawley, plasma, PO 3 mg/kg vs IV 1 mg/kg, read-out: Rat Oral Bioavailability (% F). The data set is classed as in vivo, Sprague-Dawley rats. The method, then: The test compound is administered to Sprague-Dawley rats intravenously (IV) at 1 mg/kg (using vehicles of either: 20% CAPTISOL® in 25 mM sodium phosphate buffer, pH2 quantum satis; or 25% DMA, 15% EtOH, 10% propylene glycol, 25% 2-pyrrolidone, and 25% purified water) and orally (PO) at 3 mg/kg (using a vehicle of 1% hydroxyethyl cellulose, 0.25% polysorbate 80, 0.05% Antifoam 1510-US, and purified water quantum satis). Serial blood samples are collected at 0.08, 0.25, 0.5, 1, 2, 4, 8, and 12 h post dose for IV bolus and at 0.25, 0.5, 1, 2, 4, 8, and 12 h post dose after oral administration. After treatment with an EDTA […], plasma is obtained by centrifugation and stored at −70° C. until analysis by LC-MS/MS. Test article concentration is determined in plasma and uploaded into the Watson LIMS™ system where noncompartmental analysis is used to calculate Area Under the Curve (AUC) for both IV and PO arms. Bioavailability (% F) is calculated via the following equation, %F=(AUCPO×DoseIV)/(AUCIV×DosePO)×100. Table 3 indicates the rat oral bioavailability of select BTK inhibitors.

Data set [2] has as its system type II collagen-induced arthritis (CIA) rat model. Briefly: Rat In Vivo Collagen-Induced Arthritis Assay. The conditions noted are these: for % inhibition paw thickness AUC vs Vehicle control / % paw thickness AUC (mm) ± SE: CIA rats, 9 days. Set-up: species or system Female Lewis rats. As for the experimental part: A type II collagen-induced arthritis (CIA) rat model may be used to evaluate the therapeutic effects of compounds. Female Lewis rats (Charles River Charles River Laboratories, Inc.) with a mean body weight of 155-175 g are used for the study. Animals are fed with standard rodent chow and provided water ad libitum. Immunization emulsion is prepared with 2 mg/ml bovine collagen-II mixed with an equal volume of incomplete Freund's adjuvant (IFA). Rats are immunized intradermally with 0.4 ml collagen emulsion in two sites each on the lower lumbar region, above the base of the tail on day 1, and again on day 8. Animals are randomized based on the paw thickness and body weight on day 11 into study groups, with 8 rats in each group. Compounds are prepared in 1% HEC/0.25% P80/0.05% anti-foam in purified water and dosed daily via oral gavage for 9 days. Paw thickness is quantitated daily using a caliper measurement in the right ankle site.
The inhibition by the compounds of the invention is evaluated using Dunnett's post test for multiple comparisons for the CIA rat groups treated with the indicated Example compound, at the indicated dose, as compared to CIA rat groups treated with vehicle, and differences of P<0.05 are considered to be significant. […] Mean sum paw thickness is decreased compared to vehicle treated CIA rats. Mean percent paw thickness inhibition during the treatment period illustrates dose-related improvement.
Table 4 indicates the in vivo activity for exemplified BTK inhibitors in the collagen-induced arthritis model (SE=standard error).

The test system of the next data set is normal rats. The data set can be described thus: In vivo administration to normal rats for four days (tolerability/toxicity). From the text: Compounds of the invention, for instance Example 1, show an advantageous combination of pharmacological properties, such as potency, high oral in vivo availabilty, in vivo efficacy, and a favorable toxicity profile in preclinical testing.

In general, IC50 refers to the concentration at which inhibition is half-maximal. What is called bioavailability is dose-corrected exposure relative to a reference, in per cent. Turning to `C=CC(=O)N1CCC(Nc2cncc(-c3cnc(Oc4cccc(Cl)c4)nc3)c2)CC1` [Example 1, 1-[4-[[5-[2-(3-chlorophenoxy)pyrimidin-5-yl]-3-pyridyl]amino]-1-piperidyl]prop-2-en-1-one], the IC50 on human BTK came to 25.3 ± 5.42 nM; at human EGFR it was 470 ± 93.6 nM; in data set [1], 393 ± 128 nM. Moreover, the bioavailability in “Rat Oral Bioavailability” is 74%. The entries for the “% inhibition paw thickness AUC vs Vehicle control” value in data set [2] (0.5 mg/kg/d oral), in data set [2] (1 mg/kg/d oral) and in data set [2] (3 mg/kg/d oral) were 23%, 47% and 81%, respectively. Also, the entries for the “% paw thickness AUC (mm) ± SE” value in data set [2] (0.5 mg/kg/d oral), in data set [2] (1 mg/kg/d oral) and in data set [2] (3 mg/kg/d oral) were 73.9 ± 2.5 mm, 69.6 ± 2.0 mm and 63.4 ± 1.3 mm, respectively. Moreover, the “arthritis severity in CIA rats” value in data set [2] (compared to vehicle treated CIA rats) was “dose-related reduction”. In addition, the “tolerability when administered in vivo” value in the data set on normal rats is on record as “generally well tolerated”. Further, in the data set with normal rats, the toxicity in vivo entry was “advantageous lack of toxicity”.
